From US20200253868A1, “CELL AUTOPHAGY INHIBITOR AND PREPARATION METHOD THEREFOR AND APPLICATION THEREOF” (CHINA PHARMACEUTICAL UNIVERSITY, priority 2017, published 2020) come the findings set out here.

Assay [1] relates to KRAS mutant HCT116 nude mice xenograft. Kind of assay: Human colon cancer xenograft in nude mice, tumor inhibition rate. The format is in vivo, BABL/c nude mice. As to conditions: injection via tail vein, once every other day, 14 days. Here is the method:
(§1) HCT116 is diluted with serum-free McCoy's 5a medium to 1×10^7 cells/mL, and 100 μL of the cell suspension is inoculated subcutaneously in the left armpit of BABL/c nude mice and grown for 7 days to form a tumor-bearing mouse model. The tumor-bearing mice with good growth are inoculated and randomly divided into groups. The RA-V nano-micelle injection prepared in Embodiment 3 is administered through the tail vein and administered once every other day, and the animals used are sacrificed 14 days after the administration, and the tumors are removed and weighed, calculate tumor suppression rate and perform statistical processing. Tumor inhibition rate (%)=(average tumor weight in the control group-average tumor weight in the experimental group)/average tumor weight in the control group×100%.
as §1, with “RA-XII(2)” for “The RA-V nano-micelle”, “injection” for “injection prepared in Embodiment 3”
In general terms: Xenograft models place foreign cells or tissue in a host animal.

The test system of the next assay is H460 cells. The experiment in a line: Western blot of Capsase3, BCL-2 and BCL-XL. In kind it is cell-based, human. Here is the method:
(§2) […] A549 and H460 cells which are cultured overnight in a 10% FBS medium are seeded in a 24-well plate at an appropriate density, after 24 hours, the cells are collected to detect the expression levels of […] proteins BCL-2, BCL-XL and […]3 by the Western blot experiment.

In a further assay the test system is A549 cells. Kind of assay: Western blot of Capsase3, BCL-2 and BCL-XL. In kind it is cell-based, human. Here is the method:
as §2

The next assay has as its system H358 cells. Kind of assay: Western blot of Capsase3, BCL-2 and BCL-XL. In kind it is cell-based, human.
The test system of assay [2] is KRAS dependent H441 model. The experiment in a line: Human lung cancer xenograft in nude mice, tumor inhibition rate. The format is in vivo, BABL/c nude mice. As to conditions: 2.5 mg/kg, nano-micelle injection, tail vein, once every other day, 14 days. Here is the method: as §1, with “Human lung cancer cells KRAS dependent H441 and KRAS independent H460 are” for “HCT116 is”, “physiological saline” for “serum-free McCoy's 5a medium”, “form” for “form a”

Assay [3] deals with KRAS independent H460 model. The assay is described as above. In kind it is in vivo, BABL/c nude mice. To be noted: 2.5 mg/kg, nano-micelle injection, tail vein, once every other day, 14 days. Here is the method:
as §1, with “Human lung cancer cells KRAS dependent H441 and KRAS independent H460 are” for “HCT116 is”, “physiological saline” for “serum-free McCoy's 5a medium”, “form” for “form a”

Assay [4] relates to KRAS independent H460 cells. Kind of assay: PI/Annexin V double staining, flow cytometry. In kind it is cell-based, human. To be noted: H460, 24 hours. Here is the method: (§3) KRAS independent A549 and H460 and KRAS dependent H441 and H358 cell lines which are cultured overnight in a 10% FBS medium, are digested by trypsin to form cell suspensions, which are seeded at a suitable concentration on a 6-well plate, after 24 h, RA-V (1) is added to treat for 24 hours, and are digested by trypsin, and centrifuge at 2000 rpm for 5-10 minutes at room temperature to collect cells; resuspend the cells once with pre-chilled 1×PBS (4° C.), centrifuge at 2000 rpm for 5-10 minutes, and wash the cells; add 300 μL of 1×Binding Buffer to resuspend the cells; add 5 μL of Annexin V-FITC and mix, and incubate for 15 minutes at room temperature away from light; add 5 μL of PI staining 5 minutes before the operation, and detect the cells by the flow cytometry.
(Flow cytometry measures light scatter and fluorescence of single cells or particles in a stream.)

Assay [5] concerns KRAS independent A549 cells. The experiment in a line: PI/Annexin V double staining, flow cytometry. In kind it is cell-based, human. As to conditions: A549, 24 hours. Here is the method: as §3
Assay [6] relates to KRAS dependent H441 cells. The experiment in a line: PI/Annexin V double staining, flow cytometry. The format is cell-based, human. As to conditions: H441, 24 hours. Here is the method: as §3
Assay [7] concerns KRAS dependent H358 cells. Kind of assay: PI/Annexin V double staining, flow cytometry. In kind it is cell-based, human. As to conditions: H358, 24 hours. Here is the method: as §3
The subject of assay [8] is KRAS dependent H441 cells. The experiment in a line: MTT assay of cell viability. In kind it is cell-based, human. To be noted: H441, 0, 50, 100, 200 nM, 24 hours. Here is the method:
(§4) MTT assay is used to determine the cell viability. KRAS independent A549 and H460 and KRAS dependent H441 and H358 cell lines which are cultured overnight in a 10% FBS medium, are digested by trypsin to form cell suspensions, which are seeded at a suitable concentration on a 96-well plate with 100 μl/well, cultured in a CO2 incubator for 24 hours until the cells are completely attached, and RA-V (1) with a final concentration of 0, 50, 100, 200 nM is added to react for 24 hours, and then 20 μl of MTT solution (5 mg/ml in PBS, pH=7.4) is added to each well and continue to incubate for 4 hours, stop the culture, and carefully discard the culture supernatant in the wells. Add 150 μl DMSO to each well and shake for 10 minutes to fully dissolve the crystals. Select the wavelength of 490 nm, measure the light absorption value of each well on the enzyme-linked immunosorbent detector, record the results, draw the cell growth curve with time as the abscissa and absorbance value as the ordinate.
In general terms: Formazan colour is commonly taken as a measure of viable cells.

Assay [9] relates to KRAS dependent H358 cells. Kind of assay: MTT assay of cell viability. In kind it is cell-based, human. To be noted: H358, 0, 50, 100, 200 nM, 24 hours. Here is the method: as §4
The next assay relates to H441 cells. Kind of assay: Western blot of Capsase3, BCL-2 and BCL-XL. The format is cell-based, human.
Assay [10] deals with KRAS dependent H441 cells. Kind of assay: GFP-LC3 transfection, autophagosome formation by fluorescence microscope. In kind it is cell-based, human. To be noted: H441, 24 hours. Here is the method:
(§5) KRAS dependent H441 and H358 cells which are cultured overnight in a 10% FBS medium are seeded in a 24-well plate at an appropriate density and transfected with the GFP-LC3 plasmid, after 24 hours, RA-V (1) is added to react for 24 hours, and the localization of GFP-LC3 is observed with a fluorescence microscope, and the number of autophagy cells is calculated quantitatively.

Assay [11] deals with KRAS dependent H358 cells. The assay is described as above. The format is cell-based, human. As to conditions: H358, 24 hours. Here is the method: as §5
In assay [12] the test system is KRAS dependent H441 cells. The experiment in a line: Western blot of autophagy-related proteins LC3, Atg7 and Beclin1. In kind it is cell-based, human. To be noted: H441, 0, 50, 100, 200 nM, 24 hours. Here is the method: (§6) KRAS dependent H441 and H358 cells which are cultured overnight in a 10% FBS medium are seeded in a 24-well plate at an appropriate density, after 24 hours, RA-V (1) with a concentration of 0, 50, 100, and 200 nM is added to react for 24 hours, and then the cells are collected to detect the expression levels of autophagy-related proteins LC3, Atg7 and Beclin1 by the Western blot experiment.

Assay [13] has as its system KRAS dependent H358 cells. The assay is described as above. In kind it is cell-based, human. To be noted: H358, 0, 50, 100, 200 nM, 24 hours. Here is the method:
as §6

Regarding `COc1ccc(C[C@H]2C(=O)N[C@@H](C)C(=O)N(C)C3Cc4ccc(cc4)Oc4cc(ccc4O[C@@H]4OC(CO)[C@@H](O)[C@H](O)C4O)C[C@@H](C(=O)N[C@H](C)C(=O)N[C@@H](C)C(=O)N2C)N(C)C3=O)cc1` (some centres unmarked) [RA-XII (2), RA-XII], the tumor inhibition rate in assay [1] (HCT116, high dosage) turned out to be 79.92%; in assay [1] (HCT116, medium dosage) it was 68.47%.

As for `COc1ccc(C[C@H]2C(=O)N[C@@H](C)C(=O)N(C)C3Cc4ccc(cc4)Oc4cc(ccc4O)C[C@@H](C(=O)N[C@H](C)C(=O)N[C@@H](C)C(=O)N2C)N(C)C3=O)cc1` [RA-V (1), RA-V], the “cell apoptosis by expression of Capsase3, BCL-2 and BCL-XL” value with H460 cells is reported as “no significant effect”; with A549 cells it was “no significant effect”; in the assay on H358 cells, “significantly induces the cell apoptosis”; with H441 cells it was “significantly induces the cell apoptosis”. Also, the tumor inhibition rate in assay [2] is 50.4%; in [1] (HCT116, high dosage) it was 66.67%; in assay [1] (HCT116, medium dosage) it was 41.67%. Also, the anti-tumor effect entry in assay [3] was “not effective”. The “cell apoptosis (PI/Annexin V)” value is on record as “no significant effect” in [4], “no significant effect” in assay [5], “significantly induces the cell apoptosis” in assay [6] and “significantly induces the cell apoptosis” in [7]. The “cell survival (MTT)” value in assay [8] and in [9] was “inhibits the survival” each time. Also, the “GFP-LC3 of treated cells compared with the blank group” value in [10] and in [11] was “significantly reduce” each time. Also, the “expression levels of LC3-II, Atg7 and Beclin1” value in [12] and in [13] was “decrease with the increase of the concentration” throughout.
